Patent US9458128B2, “Catechol O-methyltransferase activity inhibiting compounds” (Orion Corporation, priority 2012, dated 2016)

Biological target: T1, recombinant human soluble COMT (S-COMT) (Homo sapiens, UniProt P21964)
T1 sequence (P21964 1-221 isoform P21964-2): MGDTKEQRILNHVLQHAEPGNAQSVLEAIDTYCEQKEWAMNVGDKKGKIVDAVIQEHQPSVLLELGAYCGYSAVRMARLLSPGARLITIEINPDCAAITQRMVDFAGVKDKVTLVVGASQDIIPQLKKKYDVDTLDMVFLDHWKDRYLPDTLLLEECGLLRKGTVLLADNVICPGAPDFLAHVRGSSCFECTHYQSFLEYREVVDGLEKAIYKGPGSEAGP
Experiment: COMT inhibiting activity in vitro, Assay 1 (fluorescence plate reader)
Format: biochemical
Settings: Assay 1: 12 nM S-COMT, 60 min preincubation at 37° C., substrate esculetin, Morrison equation
Method: (§1) The inhibitory potency was determined by measuring recombinant human soluble COMT (S-COMT) activity at various compound concentrations. COMT activity measurements were performed according to the method published in Kurkela, M. et al. Analytical Biochemistry, 331 (2004) 198 with slight modifications according to Assay 1 or Assay 2 described below.
Recombinant human S-COMT (12 nM) was preincubated with the COMT inhibitor and 400 μM S-adenosyl-L-methionine in 100 mM Na2HPO4 buffer, pH 7.4, containing 5 mM MgCl2 for 60 min at 37° C. The reaction was started with the addition of the substrate esculetin for a final concentration of […] and the production of O-methylated esculetin was followed with the FlexStation fluorescence plate reader ([…], USA) using excitation at 355 nm and emission at 460 nm. The inhibitor dissociation constant, Ki, of the studied compounds was calculated using the Morrison equation, which takes the tight binding inhibition into account (Copeland, R. A. Evaluation of Enzyme Inhibitors in Drug Discovery. A Guide for Medicinal Chemists and Pharmacologists, John Wiley & Sons, Inc., Hoboken, N.J., 2005, pp. 185-187):
[formula] wherein v0 and vi are the reaction velocities in the absence and presence, respectively, of the inhibitor, E is the active enzyme concentration, and I is the inhibitor concentration. The data were analyzed with GraphPad Prism version 4.00 software (GraphPad Software, San Diego, Calif., USA). Assay 2

Row | SMILES | Ki
1 | N#Cc1cc(O)c(O)c(C#N)c1-c1cccs1 [Example 5, 4,5-Dihydroxy-2-(thiophen-2-yl)isophthalonitrile] | 0.84 nM
2 | CC(C)S(=O)(=O)c1ccc(-c2c(C#N)cc(O)c(O)c2C#N)cc1 [Example 23, 3,4-Dihydroxy-4′-(isopropylsulfonyl)biphenyl-2,6-dicarbonitrile] | 0.19 nM
3 | N#Cc1cc(O)c(O)c(C#N)c1-c1cccc(C(=O)O)c1 [Example 26, 2′,6′-Dicyano-3′,4′-dihydroxybiphenyl-3-carboxylic acid] | 0.12 nM
4 | N#Cc1cc(O)c(O)c(C#N)c1-c1ccc(CCC(=O)O)cc1 [Example 32, 3-(2′,6′-Dicyano-3′,4′-dihydroxybiphenyl-4-yl)propanoic acid] | 2 nM
5 | N#Cc1cc(O)c(O)c(C#N)c1-c1ccc(Cl)c(Cl)c1 [Example 38, 3′,4′-Dichloro-3,4-dihydroxybiphenyl-2,6-dicarbonitrile] | 9.5 nM
6 | N#Cc1cc(O)c(O)c(C#N)c1Cc1ccccc1 [Example 45, 2-Benzyl-4,5-dihydroxyisophthalonitrile] | 8.2 nM
7 | N#Cc1cc(O)c(O)c(C#N)c1C1=CCOCC1 [Example 74, 2-(3,6-Dihydro-2H-pyran-4-yl)-4,5-dihydroxyisophthalonitrile] | 2 nM
8 | N#Cc1cc(O)c(O)c(C#N)c1/C=C/C(=O)O [Example 76, (E)-3-(2,6-Dicyano-3,4-dihydroxyphenyl)acrylic acid] | 3.3 nM
9 | C=Cc1c(C#N)cc(O)c(O)c1C#N [Example 89, 4,5-Dihydroxy-2-vinylisophthalonitrile] | 2 nM
10 | CCN(CC)C(=O)c1cccc(-c2c(C#N)cc(O)c(O)c2C#N)c1 [Example 100, 2′,6′-Dicyano-N,N-diethyl-3′,4′-dihydroxybiphenyl-3-carboxamide] | 6.5 nM
11 | Cc1ccc(/C=C/c2c(C#N)cc(O)c(O)c2C#N)cc1 [Example 121, (E)-4,5-Dihydroxy-2-(4-methylstyryl)isophthalonitrile] | 18 nM
12 | N#Cc1cc(O)c(O)c(C#N)c1-c1ccc2cc(O)ccc2c1 [Example 122, 4,5-Dihydroxy-2-(6-hydroxynaphthalen-2-yl)isophthalonitrile] | 1.5 nM
13 | N#Cc1cc(O)c(O)c(C#N)c1CCCO [Example 187, 4,5-Dihydroxy-2-(3-hydroxypropyl)isophthalonitrile] | 3.2 nM
14 | N#Cc1cc(O)c(O)c(C#N)c1N1CCOCC1 [Example 191, 4,5-Dihydroxy-2-morpholinoisophthalonitrile] | 2.9 nM

Biological target: T1, recombinant human soluble COMT (S-COMT)
Experiment: COMT inhibiting activity in vitro, Assay 2 (HPLC with fluorescence detection)
Format: biochemical
Settings: Assay 2: 0.8 nM S-COMT, esculetin 0.5 μM, Morrison equation
Method: as §1
Recombinant human S-COMT (0.8 nM) was incubated with the COMT inhibitor and 200 μM S-adenosyl-L-methionine in 100 mM Na2HPO4 buffer, pH 7.4, containing 5 mM MgCl2 for 30 min at 37° C. The reaction was started with the addition of esculetin for a final concentration of 0.5 μM and the reaction mixture with total volume of 200 μl was incubated for 30 min at 37° C. The reaction was stopped with 20 μl of 4 M HClO4 and the precipitated protein was removed by Sirocco protein precipitation plate (centrifuged at 4° C. for 10 min at 3000 g). O-Methylated esculetin was detected by Waters HT Alliance HPLC setup with Waters 474 fluorescence detector (Ex […], Em 460 nm, Gain 100). The analytes were separated isocratically using 0.1 M Na2HPO4, 20 mM citric acid, 0.15 mM EDTA, pH 3.2, in 40% methanol as mobile phase and Waters Spherisorb ODS2 (3 μm, 4.6 mm×100 mm) column. O-Methylated esculetin concentrations were calculated based on the standard curve and the Ki values were calculated using the Morrison equation as in Assay 1.

Row | SMILES | Ki
15 | N#Cc1cc(O)c(O)c(C#N)c1Cc1ccc(C(=O)O)cc1 [Example 118, 4-(2,6-Dicyano-3,4-dihydroxybenzyl)benzoic acid] | 0.33 nM
16 | COC(=O)CCc1ccc(Sc2c(C#N)cc(O)c(O)c2C#N)cc1 [Example 144, Methyl 3-(4-(2,6-dicyano-3,4-dihydroxyphenylthio)phenyl)propanoate] | 0.7 nM
17 | Cc1ccc(-c2c(C#N)cc(O)c(O)c2C#N)cc1 [Example 152, 3,4-Dihydroxy-4′-methylbiphenyl-2,6-dicarbonitrile] | 1.6 nM
18 | N#Cc1cc(O)c(O)c(C#N)c1Cc1ccc(CCC(=O)O)cc1 [Example 153, 3-(4-(2,6-Dicyano-3,4-dihydroxybenzyl)phenyl)propanoic acid] | 0.4 nM
19 | N#Cc1cc(O)c(O)c(C#N)c1Cc1ccc(C(F)(F)F)cc1 [Example 154, 4,5-Dihydroxy-2-(4-(trifluoromethyl)benzyl)isophthalonitrile] | 1.3 nM
20 | Cc1ccc([S+]([O-])c2c(C#N)cc(O)c(O)c2C#N)cc1 (stereo not shown) [Example 156, 4,5-Dihydroxy-2-(p-tolylsulfinyl)isophthalonitrile] | 0.26 nM
21 | CCc1ccc(Sc2c(C#N)cc(O)c(O)c2C#N)cc1 [Example 158, 2-(4-Ethylphenylthio)-4,5-dihydroxyisophthalonitrile] | 0.53 nM
22 | N#Cc1cc(O)c(O)c(C#N)c1Sc1ccc(Cl)cc1 [Example 159, 2-(4-Chlorophenylthio)-4,5-dihydroxyisophthalonitrile] | 0.94 nM
23 | Cc1ccccc1Sc1c(C#N)cc(O)c(O)c1C#N [Example 160, 4,5-Dihydroxy-2-(o-tolylthio)isophthalonitrile] | 0.7 nM
24 | COC(=O)c1ccc(Sc2c(C#N)cc(O)c(O)c2C#N)cc1 [Example 161, Methyl 4-(2,6-dicyano-3,4-dihydroxyphenylthio)benzoate] | 0.3 nM
25 | N#Cc1cc(O)c(O)c(C#N)c1Sc1ccc(CC(=O)O)cc1 [Example 164, 2-(4-(2,6-Dicyano-3,4-dihydroxyphenylthio)phenyl)acetic acid] | 0.2 nM
26 | COc1ccc(Sc2c(C#N)cc(O)c(O)c2C#N)cc1 [Example 167, 4,5-Dihydroxy-2-(4-methoxyphenylthio)isophthalonitrile] | 0.3 nM
27 | N#Cc1cc(O)c(O)c(C#N)c1Sc1ccncc1 [Example 171, 4,5-Dihydroxy-2-(pyridin-4-ylthio)isophthalonitrile] | 0.9 nM
28 | N#Cc1cc(O)c(O)c(C#N)c1Sc1cccc(C(=O)O)c1 [Example 172, 3-(2,6-Dicyano-3,4-dihydroxyphenylthio)benzoic acid] | 0.2 nM
29 | N#Cc1cc(O)c(O)c(C#N)c1Sc1ccc2ccccc2c1 [Example 174, 4,5-Dihydroxy-2-(naphthalen-2-ylthio)isophthalonitrile] | 0.5 nM
30 | CC(=O)c1ccc(Oc2c(C#N)cc(O)c(O)c2C#N)cc1 [Example 177, 2-(4-Acetylphenoxy)-4,5-dihydroxyisophthalonitrile] | 0.8 nM
31 | Cc1ccc(Oc2c(C#N)cc(O)c(O)c2C#N)c(C)c1 [Example 180, 2-(2,4-Dimethylphenoxy)-4,5-dihydroxyisophthalonitrile] | 0.5 nM
32 | Cc1ccc(S(=O)(=O)c2c(C#N)cc(O)c(O)c2C#N)cc1 [Example 209, 4,5-Dihydroxy-2-tosylisophthalonitrile] | 0.1 nM

Test system: not listed separately
Experiment: Determination of levodopa concentration in rat plasma
Format: in vivo
Settings: entacapone = 1.00, adult male Wistar rats, COMT inhibitor dosed orally with levodopa+carbidopa
Method: Levodopa concentration in rat plasma was determined substantially as described in e.g. Kim, T. K. et al. European Journal of Pharmaceutical Sciences, 38 (2009) 525. The studies were performed in adult male Wistar rats. The COMT inhibitor was dosed orally over a range of doses and several sampling time points were chosen between 0 min and 300 min after drug administration (levodopa+carbidopa and COMT inhibitor). Blood samples were collected by cardiac puncture under CO2 anaesthesia into pre-cooled K2EDTA tubes and kept on ice until the separation of plasma by centrifugation. For levodopa analysis, 75 μl of separated plasma was pipetted without delay into pre-cooled polypropylene tubes containing a conserving agent. All the samples were stored at −80° C. nominal until analyzed. Plasma levels of levodopa were determined by LC-MS/MS (or HPLC). Standard pharmacokinetic methods were used to evaluate the concentration—time data by non-compartmental analysis modeling. The analyses were performed using WinNonlin® Professional v. 5.0.1.

Row | SMILES | Relative levodopa concentration
33 | N#Cc1cc(O)c(O)c(C#N)c1Br [Example 1, 2-Bromo-4,5-dihydroxyisophthalonitrile] | 1.65
34 | N#Cc1cc(O)c(O)c(C#N)c1-c1ccco1 [Example 6, 2-(Furan-2-yl)-4,5-dihydroxyisophthalonitrile] | 1.64
35 | CC(C)S(=O)(=O)c1ccc(-c2c(C#N)cc(O)c(O)c2C#N)cc1 [Example 23, 3,4-Dihydroxy-4′-(isopropylsulfonyl)biphenyl-2,6-dicarbonitrile] | 1.34
36 | CC(C)(C)/C=C/c1c(C#N)cc(O)c(O)c1C#N [Example 28, (E)-2-(3,3-Dimethylbut-1-enyl)-4,5-dihydroxyisophthalonitrile] | 2.69
37 | N#Cc1cc(O)c(O)c(C#N)c1Cc1ccc(F)cc1 [Example 55, 2-(4-Fluorobenzyl)-4,5-dihydroxyisophthalonitrile] | 1.31
38 | N#Cc1cc(O)c(O)c(C#N)c1Cc1ccccc1F [Example 60, 2-(2-Fluorobenzyl)-4,5-dihydroxyisophthalonitrile] | 1.13
39 | CC(C)=Cc1c(C#N)cc(O)c(O)c1C#N [Example 87, 4,5-Dihydroxy-2-(2-methylprop-1-enyl)isophthalonitrile] | 1.51
40 | C=CCc1c(C#N)cc(O)c(O)c1C#N [Example 92, 2-Allyl-4,5-dihydroxyisophthalonitrile] | 1.42
